The structures appear in SMILES notation. Values after ≈ are worked out from the molar mass of the structure shown. Like-named read-outs stand apart in the source and are kept apart here. *1 amine or outer side, *2 acyl side, *3 side chain or, on linkers, in order; H or OH if unused. Where a SMILES comes first, the peptide text is derived from it. Bridges are numbered along the chain shown (N, C = ends). Roman numbers before positions name the chains, in order. Suc = O=C(CCC(=O)[*:2])[*:1]

One series relates to MRSA (LAC Clone). In words: microbe, parasite or virus in culture. It is filed as cell-based, Methicillin-resistant Staphylococcus aureus. As for the experimental part:
(§1) The selected strains of bacteria, MRSA (Los Angeles County (LAC) clone), E. coli (ATCC 25922), Pseudomonas aeruginosa (ATCC 27883), and Klebsiella pneumoniae (ATCC BAA 1705) were cultured according to the guidelines of the Clinical Laboratory Standards Institute (CLSI) guidelines. MIC values were determined using microbroth dilution assay. Tricyclic peptide 20 was used to evaluate antibacterial activity in comparison to positive controls, such as Meropenem for Gram-negative bacteria and c[R4W4] for Gram-positive bacteria. Bacterial strains were inoculated into LB (5 mL) and shaken in an orbital shaker at 175 rpm overnight at 37 °C. The cultured suspension was immediately diluted to get turbidity of 0.5 McFarland (1.5 × 10^8 bacterial cell CFU/mL) using normal saline. The test compounds (tricyclic peptide 20, Meropenem, and c[R4W4]) were dissolved in 5% dimethyl sulfoxide (DMSO) to generate 256 µg/mL solutions. 200 µL of tricyclic peptide 20, and controls were added to the first column of the 96 well plates, and a twofold serial dilution was performed with the addition of 100 µL of bacterial culture media to the other wells. […] Bacterial solution (100 µL) was added to all the wells and incubated statically at 37 °C overnight. The minimum concentration at which bacterial growth was not visible to eyes were reported as MICs and experiments were performed in triplicate.

Series [1] has as its system Klebsiella pneumoniae (ATCC BAA 1705). Kind of series: microbe, parasite or virus in culture. It is filed as cell-based. As for the experimental part: as §1
Series [2] has as its system Pseudomonas aeruginosa (ATCC 27883). Kind of series: microbe, parasite or virus in culture. In kind it is cell-based. The procedure: as §1
Another series has as its system E. coli (ATCC 25922). In words: microbe, parasite or virus in culture. In kind it is cell-based, Escherichia coli. The procedure:
as §1

For series [3], the system named is MRSA, Klebsiella pneumoniae, Pseudomonas aeruginosa, and E. coli. In kind it is cell-based. The note with it: range over the four strains, microbroth dilution. As for the experimental part:
as §1
A general note: Dilution methods test growth across graded concentrations, often in twofold steps.

The next series deals with MDA-MB-231 cells. In kind it is cell-based, Human. As for the experimental part:
Human breast cancer (MDA-MB-231) cell line was grown on 75 cm^2 cell culture flasks with Dulbecco’s modified eagle’s medium (DMEM) medium, supplemented with 10% fetal bovine serum (FBS), and 1% penicillin-streptomycin solution (10,000 units of penicillin and 10 mg of streptomycin in 0.9% NaCl) in a humidified atmosphere of 5% CO2, 95% air at 37 °C. CellTiter 96® Aqueous (Promega, Madison, WI, USA) one solution cell proliferation assay (MTS) was utilized to evaluate MDA-MB-231 cell viability. Cells were seeded into 96-well plate (10^4 cells/100 μL) in complete media and incubated overnight at 37 °C with 5% CO2. Different concentrations (0−300 μM) of the peptide solution (10 μL) were added to wells to make the final concentrations of the peptide (0−30 μM). The cells were incubated again (37 °C, 5% CO2) for 24 h, then MTS reagent (20 μL) was added to each well followed by incubation for 2 h under the same condition. The absorbance of the resulting solution was evaluated at 490 nm using a microplate reader to detect the live cells. Cells without peptide were considered as a control. DMSO (30% v/v) was used as a positive control. The compound was used in aqueous solution. All the tests were performed in triplicate.

For the compound `C[C@@H](O)[C@H]1C(=O)N2C(C(=O)O)=C(S[C@@H]3CN[C@H](C(=O)N(C)C)C3)[C@H](C)[C@H]12` [Meropenem], the MIC is 4 µg/mL (≈ 10.4 µM) in the series on MRSA (LAC Clone) (Staphylococcus aureus, MRSA, microbroth dilution, incubated overnight at 37 °C, growth not visible to eyes, performed in triplicate, read-out: MIC); 32 µg/mL (≈ 83.4 µM) in series [1] (Klebsiella pneumoniae, BAA1705, microbroth dilution, incubated overnight at 37 °C, growth not visible to eyes, performed in triplicate, read-out: MIC); 1 µg/mL (≈ 2.61 µM) in series [2] (Pseudomonas aeruginosa, ATCC27883, microbroth dilution, incubated overnight at 37 °C, growth not visible to eyes, performed in triplicate, read-out: MIC); 8 µg/mL (≈ 20.9 µM) in the series with E. coli (ATCC 25922) (Escherichia coli, ATCC25922, microbroth dilution, incubated overnight at 37 °C, growth not visible to eyes, performed in triplicate, read-out: MIC).

As to `N=C(N)NCCC[C@@H]1NC(=O)[C@H](Cc2c[nH]c3ccccc23)NC(=O)[C@H](CCCNC(=N)N)NC(=O)[C@H](Cc2c[nH]c3ccccc23)NC(=O)[C@H](CCCCNC(=O)CCC(=O)NCCCC[C@@H]2NC(=O)[C@H](CCCNC(=N)N)NC(=O)[C@H](Cc3c[nH]c4ccccc34)NC(=O)[C@H](CCCNC(=N)N)NC(=O)[C@H](Cc3c[nH]c4ccccc34)NC(=O)[C@H](CCCNC(=N)N)NC(=O)[C@H](Cc3c[nH]c4ccccc34)NC(=O)[C@H](CCCNC(=N)N)NC(=O)[C@H](Cc3c[nH]c4ccccc34)NC2=O)NC(=O)[C@H](CCCNC(=N)N)NC(=O)[C@H](Cc2c[nH]c3ccccc23)NC(=O)[C@H](CCCNC(=N)N)NC(=O)[C@H](Cc2c[nH]c3ccccc23)NC(=O)[C@H](CCCCNC(=O)CCC(=O)NCCCC[C@@H]2NC(=O)[C@H](CCCNC(=N)N)NC(=O)[C@H](Cc3c[nH]c4ccccc34)NC(=O)[C@H](CCCNC(=N)N)NC(=O)[C@H](Cc3c[nH]c4ccccc34)NC(=O)[C@H](CCCNC(=N)N)NC(=O)[C@H](Cc3c[nH]c4ccccc34)NC(=O)[C@H](CCCNC(=N)N)NC(=O)[C@H](Cc3c[nH]c4ccccc34)NC2=O)NC1=O` [Tricyclic peptide 20] (I: cyclo(KWRWRKWRWR) / II: cyclo(KWRWRWRWR) / III: cyclo(KWRWRWRWR); linker I:1-III:1, I:6-II:1 via Suc), the MIC against MRSA (LAC Clone) (LAC Clone) worked out at 64 µg/mL (≈ 13.4 µM); in series [1] (ATCC BAA 1705) it was 128 µg/mL (≈ 26.7 µM); in series [2] (ATCC 27883) it was 128 µg/mL (≈ 26.7 µM); with E. coli (ATCC 25922) (ATCC 25922), 64 µg/mL (≈ 13.4 µM). Moreover, the “MIC (range over MRSA, K. pneumoniae, P. aeruginosa, E. coli)” value in series [3] was 64 to 128 µg/mL. Besides, the cell viability (as a rule, a read-out of living cells in per cent, often relative to untreated cells) in the series on MDA-MB-231 cells (25 µM) is “more than 97%”; with MDA-MB-231 cells (30 µM), 92%.

As to `N=C(N)NCCC[C@@H]1NC(=O)[C@H](CCCNC(=N)N)NC(=O)[C@H](CCCNC(=N)N)NC(=O)[C@H](Cc2c[nH]c3ccccc23)NC(=O)[C@H](Cc2c[nH]c3ccccc23)NC(=O)[C@H](Cc2c[nH]c3ccccc23)NC(=O)[C@H](Cc2c[nH]c3ccccc23)NC(=O)[C@H](CCCNC(=N)N)NC1=O` [c[R4W4]] (cyclo(RRRRWWWW)), the MIC was found to be 4 µg/mL (≈ 2.92 µM) in the series with MRSA (LAC Clone) (LAC Clone), 32 µg/mL (≈ 23.4 µM) in series [1] (ATCC BAA 1705), 64 µg/mL (≈ 46.7 µM) in series [2] (ATCC 27883) and 16 µg/mL (≈ 11.7 µM) in the series on E. coli (ATCC 25922) (ATCC 25922).

The values are drawn from publication PMC7558522, “Click-Free Synthesis of a Multivalent Tricyclic Peptide as a Molecular Transporter” (Pharmaceutics, 2020).
